# Where two headings read alike, the source gives them in different places. Square brackets hold non-standard residues; d marks the D form. Peptide text beside a SMILES is read from it. * marks the point of attachment. Tyr(Nα-amidino) = N=C(N)N[C@@H](Cc1ccc(O)cc1)C(=O)*; αMeF = C[C@](N)(Cc1ccccc1)C(=O)O; 4Pal = N[C@@H](Cc1ccncc1)C(=O)O; Isonicotinoyl = O=C(c1ccncc1)*; Aib = CC(C)(N)C(=O)O
# Legend:
# Assay type in all cases: cell-based
# human GIPR = target: T1, human GIPR (Homo sapiens, UniProt P48546); test: Agonist activity against human GIPR, CRE-luciferase reporter assay (rise in intracellular cAMP) in hGIPR/CRE-LUC/CHO-K1 cells
# T1 construct: expressed in transfected cells; host or cells: CHO-K1 (CRE-LUC/CHO-K1), plasmid hGIPR/pMSRα-neo
# T1 sequence (P48546 22-466): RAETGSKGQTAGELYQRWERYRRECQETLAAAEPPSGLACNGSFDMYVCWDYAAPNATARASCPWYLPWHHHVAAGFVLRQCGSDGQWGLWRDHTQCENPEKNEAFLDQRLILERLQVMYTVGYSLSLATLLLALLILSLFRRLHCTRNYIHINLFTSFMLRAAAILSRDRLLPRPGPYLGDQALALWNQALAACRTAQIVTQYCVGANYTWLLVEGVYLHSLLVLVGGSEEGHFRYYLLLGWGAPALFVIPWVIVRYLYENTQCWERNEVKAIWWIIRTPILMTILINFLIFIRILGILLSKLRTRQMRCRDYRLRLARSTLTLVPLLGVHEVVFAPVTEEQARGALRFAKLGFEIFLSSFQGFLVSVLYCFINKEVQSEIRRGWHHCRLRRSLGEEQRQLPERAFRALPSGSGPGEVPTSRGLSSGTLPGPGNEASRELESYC
# human GLP-1R = target: T2, human GLP-1R (Homo sapiens, UniProt P43220); test: Agonist activity against human GLP-1R, CRE-luciferase reporter assay in hGLP-1R/CRE-luc/CHO-K1 cells
# T2 construct: expressed in transfected cells; host or cells: CHO-K1, plasmids hGLP-1/pIRESneo3 and Cre-luc(Zeo)
# T2 sequence (P43220 24-463): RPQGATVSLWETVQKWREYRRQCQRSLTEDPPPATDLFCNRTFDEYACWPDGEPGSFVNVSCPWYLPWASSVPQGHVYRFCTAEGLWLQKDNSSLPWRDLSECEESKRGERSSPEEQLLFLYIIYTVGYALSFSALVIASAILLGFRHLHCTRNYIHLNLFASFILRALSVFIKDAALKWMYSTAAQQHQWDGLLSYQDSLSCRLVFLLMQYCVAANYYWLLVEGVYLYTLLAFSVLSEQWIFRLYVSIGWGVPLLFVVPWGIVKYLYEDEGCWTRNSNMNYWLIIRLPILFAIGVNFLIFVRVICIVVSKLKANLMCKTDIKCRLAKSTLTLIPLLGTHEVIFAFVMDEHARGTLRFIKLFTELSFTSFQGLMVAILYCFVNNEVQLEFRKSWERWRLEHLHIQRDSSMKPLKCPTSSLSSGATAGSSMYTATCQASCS
# human glucagon R = target: T3, human glucagon R (Homo sapiens, UniProt P47871); test: Agonist activity against human glucagon R, CRE-luciferase reporter assay in hGlucagonR/CRE-LUC/CHO-K1 cells
# T3 construct: expressed in transfected cells; host or cells: CHO-K1 (CRE-LUC/CHO-K1), plasmid hGlucagonR/pMSRα-neo
# T3 sequence (P47871 26-477): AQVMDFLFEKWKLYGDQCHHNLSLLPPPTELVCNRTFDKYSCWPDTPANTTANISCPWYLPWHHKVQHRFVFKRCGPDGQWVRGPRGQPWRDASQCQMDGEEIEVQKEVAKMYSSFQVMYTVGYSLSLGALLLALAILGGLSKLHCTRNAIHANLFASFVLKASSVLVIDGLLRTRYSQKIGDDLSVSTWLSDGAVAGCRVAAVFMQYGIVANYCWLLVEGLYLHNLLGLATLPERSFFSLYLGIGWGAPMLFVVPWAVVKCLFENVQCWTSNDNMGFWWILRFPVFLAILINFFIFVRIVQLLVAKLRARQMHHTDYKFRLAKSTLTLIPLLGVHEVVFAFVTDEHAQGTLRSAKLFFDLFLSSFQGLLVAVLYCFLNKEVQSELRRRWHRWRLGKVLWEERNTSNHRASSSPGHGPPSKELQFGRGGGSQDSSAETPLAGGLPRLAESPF
SMILES,EC50 (human GIPR) [nM],EC50 (human GLP-1R) [nM],EC50 (human glucagon R) [nM],"EC50 (human GIPR; hGIPR/CRE-LUC/CHO-K1 cells, 4 hours incubation, 10 nM GIP = 100%, read-out: Agonist activity (EC50) hGIPR) [nM]","EC50 (human GLP-1R; hGLP-1R/CRE-luc/CHO-K1 cells, 4 hours incubation, 10 nM GLP-1 = 100%, read-out: Agonist activity (EC50) hGLP-1R) [nM]","EC50 (human glucagon R; hGlucagonR/CRE-LUC/CHO-K1 cells, 4 hours incubation, 10 nM glucagon = 100%, read-out: Agonist activity (EC50) hGCGR) [nM]"
CC(C)C[C@H](NC(=O)[C@H](CC(C)C)NC(=O)[C@H](Cc1c[nH]c2ccccc12)NC(=O)[C@H](CCCCN)NC(=O)[C@@H](NC(=O)[C@H](Cc1ccccc1)NC(=O)[C@H](CCC(=O)O)NC(=O)[C@H](C)NC(=O)[C@H](CCC(N)=O)NC(=O)[C@H](C)NC(=O)[C@H](CCC(N)=O)NC(=O)[C@H](CCCCN)NC(=O)[C@H](CC(=O)O)NC(=O)[C@H](CC(C)C)NC(=O)C(C)(C)NC(=O)[C@H](Cc1ccncc1)NC(=O)C(C)(C)NC(=O)[C@H](Cc1ccc(O)cc1)NC(=O)[C@H](CC(=O)O)NC(=O)[C@H](CO)NC(=O)[C@@H](NC(=O)[C@](C)(Cc1ccccc1)NC(=O)[C@@H](NC(=O)CNC(=O)[C@H](CCC(=O)O)NC(=O)C(C)(C)NC(=O)[C@@H](N)Cc1ccc(O)cc1)[C@@H](C)O)[C@@H](C)O)C(C)C)C(=O)N[C@@H](CCCCN)C(=O)NCC(=O)NCC(=O)N1CCC[C@H]1C(=O)N[C@@H](CO)C(=O)N[C@@H](CO)C(=O)NCC(=O)N[C@@H](C)C(=O)N1CCC[C@H]1C(=O)N1CCC[C@H]1C(=O)N1CCC[C@H]1C(=O)N[C@@H](CO)C(=O)N[C@@H](CCCCN)C(N)=O [Example 12] (H-Y[Aib]EGT[αMeF]TSDY[Aib][4Pal][Aib]LDKQAQAEFVKWLLKGGPSSGAPPPSK-NH2),0.0072,0.014,> 1000,–,–,–
CC(C)C[C@H](NC(=O)[C@H](CC(C)C)NC(=O)[C@H](Cc1c[nH]c2ccccc12)NC(=O)[C@H](CCCCN)NC(=O)[C@@H](NC(=O)[C@H](Cc1ccccc1)NC(=O)[C@H](CCC(=O)O)NC(=O)[C@H](C)NC(=O)[C@H](CCC(N)=O)NC(=O)[C@H](C)NC(=O)[C@H](CCC(N)=O)NC(=O)[C@H](CCCCN)NC(=O)[C@H](CC(=O)O)NC(=O)[C@H](CC(C)C)NC(=O)C(C)(C)NC(=O)[C@H](CCCCN)NC(=O)C(C)(C)NC(=O)[C@H](Cc1ccc(O)cc1)NC(=O)[C@H](CC(=O)O)NC(=O)[C@H](CO)NC(=O)[C@@H](NC(=O)[C@](C)(Cc1ccccc1)NC(=O)[C@@H](NC(=O)CNC(=O)[C@H](CCC(=O)O)NC(=O)C(C)(C)NC(=O)[C@@H](N)Cc1ccc(O)cc1)[C@@H](C)O)[C@@H](C)O)C(C)C)C(=O)N[C@@H](CCCCN)C(=O)NCC(=O)NCC(=O)N1CCC[C@H]1C(=O)N[C@@H](CO)C(=O)N[C@@H](CO)C(=O)NCC(=O)N[C@@H](C)C(=O)N1CCC[C@H]1C(=O)N1CCC[C@H]1C(=O)N1CCC[C@H]1C(=O)N[C@@H](CO)C(=O)N[C@@H](CCCCN)C(N)=O [Example 9] (H-Y[Aib]EGT[αMeF]TSDY[Aib]K[Aib]LDKQAQAEFVKWLLKGGPSSGAPPPSK-NH2),0.008,0.015,> 1000,–,–,–
CC[C@H](C)[C@H](NC(=O)C(C)(C)NC(=O)[C@H](Cc1ccc(O)cc1)NC(=O)[C@H](CC(=O)O)NC(=O)[C@H](CO)NC(=O)[C@@H](NC(=O)[C@](C)(Cc1ccccc1)NC(=O)[C@@H](NC(=O)CNC(=O)[C@H](CCC(=O)O)NC(=O)C(C)(C)NC(=O)[C@H](Cc1ccc(O)cc1)NC(=N)N)[C@@H](C)O)[C@@H](C)O)C(=O)NC(C)(C)C(=O)N[C@@H](CC(C)C)C(=O)N[C@@H](CC(=O)O)C(=O)N[C@@H](CCCCN)C(=O)N[C@@H](CCC(N)=O)C(=O)N[C@@H](C)C(=O)N[C@@H](CCC(N)=O)C(=O)N[C@@H](C)C(=O)N[C@@H](CCC(=O)O)C(=O)N[C@@H](Cc1ccccc1)C(=O)N[C@H](C(=O)N[C@@H](CCCCN)C(=O)N[C@@H](Cc1c[nH]c2ccccc12)C(=O)N[C@@H](CC(C)C)C(=O)N[C@@H](CC(C)C)C(=O)N[C@@H](CCCCN)C(=O)NCC(=O)NCC(=O)N1CCC[C@H]1C(=O)N[C@@H](CO)C(=O)N[C@@H](CO)C(=O)NCC(=O)N[C@@H](C)C(=O)N1CCC[C@H]1C(=O)N1CCC[C@H]1C(=O)N1CCC[C@H]1C(=O)N[C@@H](CO)C(=O)N[C@@H](CCCCN)C(N)=O)C(C)C [Example 22] ({Tyr(Nα-amidino)}-[Aib]EGT[αMeF]TSDY[Aib]I[Aib]LDKQAQAEFVKWLLKGGPSSGAPPPSK-NH2),0.019,0.035,> 1000,–,–,–
CC[C@H](C)[C@H](NC(=O)C(C)(C)NC(=O)[C@H](Cc1ccc(O)cc1)NC(=O)[C@H](CC(=O)O)NC(=O)[C@H](CO)NC(=O)[C@@H](NC(=O)[C@](C)(Cc1ccccc1)NC(=O)[C@@H](NC(=O)CNC(=O)[C@H](CCC(=O)O)NC(=O)C(C)(C)NC(=O)[C@H](Cc1ccc(O)cc1)NC(=O)c1ccncc1)[C@@H](C)O)[C@@H](C)O)C(=O)NC(C)(C)C(=O)N[C@@H](CC(C)C)C(=O)N[C@@H](CC(=O)O)C(=O)N[C@@H](CCCCN)C(=O)N[C@@H](CCC(N)=O)C(=O)N[C@@H](C)C(=O)N[C@@H](CCC(N)=O)C(=O)N[C@@H](C)C(=O)N[C@@H](CCC(=O)O)C(=O)N[C@@H](Cc1ccccc1)C(=O)N[C@H](C(=O)N[C@@H](CCCCN)C(=O)N[C@@H](Cc1c[nH]c2ccccc12)C(=O)N[C@@H](CC(C)C)C(=O)N[C@@H](CC(C)C)C(=O)N[C@@H](CCCCN)C(=O)NCC(=O)NCC(=O)N1CCC[C@H]1C(=O)N[C@@H](CO)C(=O)N[C@@H](CO)C(=O)NCC(=O)N[C@@H](C)C(=O)N1CCC[C@H]1C(=O)N1CCC[C@H]1C(=O)N1CCC[C@H]1C(=O)N[C@@H](CO)C(=O)N[C@@H](CCCCN)C(N)=O)C(C)C [Example 20] (Isonicotinoyl-Y[Aib]EGT[αMeF]TSDY[Aib]I[Aib]LDKQAQAEFVKWLLKGGPSSGAPPPSK-NH2),–,–,–,0.026,0.13,> 1000
CC(C)C[C@H](NC(=O)[C@H](CC(C)C)NC(=O)[C@H](Cc1c[nH]c2ccccc12)NC(=O)[C@H](CCCCN)NC(=O)[C@@H](NC(=O)[C@H](Cc1ccccc1)NC(=O)[C@H](CCC(=O)O)NC(=O)[C@H](C)NC(=O)[C@H](CCC(N)=O)NC(=O)[C@H](C)NC(=O)[C@H](CCC(N)=O)NC(=O)[C@H](CCCCN)NC(=O)[C@H](CC(=O)O)NC(=O)[C@H](CC(C)C)NC(=O)[C@](C)(Cc1ccccc1)NC(=O)[C@H](CCCCN)NC(=O)C(C)(C)NC(=O)[C@H](Cc1ccc(O)cc1)NC(=O)[C@H](CC(=O)O)NC(=O)[C@H](CO)NC(=O)[C@@H](NC(=O)[C@](C)(Cc1ccccc1)NC(=O)[C@@H](NC(=O)CNC(=O)[C@H](CCC(=O)O)NC(=O)C(C)(C)NC(=O)[C@@H](N)Cc1ccc(O)cc1)[C@@H](C)O)[C@@H](C)O)C(C)C)C(=O)N[C@@H](CCCCN)C(=O)NCC(=O)NCC(=O)N1CCC[C@H]1C(=O)N[C@@H](CO)C(=O)N[C@@H](CO)C(=O)NCC(=O)N[C@@H](C)C(=O)N1CCC[C@H]1C(=O)N1CCC[C@H]1C(=O)N1CCC[C@H]1C(=O)N[C@@H](CO)C(=O)N[C@@H](CCCCN)C(N)=O [Example 15] (H-Y[Aib]EGT[αMeF]TSDY[Aib]K[αMeF]LDKQAQAEFVKWLLKGGPSSGAPPPSK-NH2),0.013,0.015,> 1000,–,–,–
CC[C@H](C)[C@H](NC(=O)C(C)(C)NC(=O)[C@H](Cc1ccc(O)cc1)NC(=O)[C@H](CC(=O)O)NC(=O)[C@H](CO)NC(=O)[C@@H](NC(=O)[C@](C)(Cc1ccccc1)NC(=O)[C@@H](NC(=O)CNC(=O)[C@H](CCC(=O)O)NC(=O)C(C)(C)NC(=O)[C@@H](N)Cc1ccc(O)cc1)[C@@H](C)O)[C@@H](C)O)C(=O)NC(C)(C)C(=O)N[C@@H](CC(C)C)C(=O)N[C@@H](CC(=O)O)C(=O)N[C@@H](CCCCN)C(=O)N[C@@H](CCC(N)=O)C(=O)N[C@@H](C)C(=O)N[C@@H](CCC(N)=O)C(=O)N[C@@H](CO)C(=O)N[C@@H](CCC(=O)O)C(=O)N[C@@H](Cc1ccccc1)C(=O)N[C@H](C(=O)N[C@@H](CCCCN)C(=O)N[C@@H](Cc1c[nH]c2ccccc12)C(=O)N[C@@H](CC(C)C)C(=O)N[C@@H](CC(C)C)C(=O)N[C@@H](CCCCN)C(=O)NCC(=O)NCC(=O)N1CCC[C@H]1C(=O)N[C@@H](CO)C(=O)N[C@@H](CO)C(=O)NCC(=O)N[C@@H](C)C(=O)N1CCC[C@H]1C(=O)N1CCC[C@H]1C(=O)N1CCC[C@H]1C(=O)N[C@@H](CO)C(=O)N[C@@H](CCCCN)C(N)=O)C(C)C [Example 4] (H-Y[Aib]EGT[αMeF]TSDY[Aib]I[Aib]LDKQAQSEFVKWLLKGGPSSGAPPPSK-NH2),0.0049,0.0099,> 1000,–,–,–

# Source: patent US9200051B2, “Peptide compound” (TAKEDA PHARMACEUTICAL COMPANY LIMITED, priority 2013, dated 2015)
